Source: ChEMBL document CHEMBL3352104, “Biological evaluation and structural insights for design of subtype-selective peroxisome proliferator activated receptor-α (PPAR-α) agonists” (Bioorg Med Chem Lett, 2015)

Legend:
[1] = target: T1, Peroxisome proliferator-activated receptor alpha (Homo sapiens, UniProt Q07869); test: Agonist activity at GAL4-tagged PPARalpha ligand-binding domain (unknown origin) expressed in HEK293T cells incubated for 16 to 19 hrs by beta-lactamase reporter gene assay; format: cell-based, HEK-293T
T1 sequence (Q07869 whole entry): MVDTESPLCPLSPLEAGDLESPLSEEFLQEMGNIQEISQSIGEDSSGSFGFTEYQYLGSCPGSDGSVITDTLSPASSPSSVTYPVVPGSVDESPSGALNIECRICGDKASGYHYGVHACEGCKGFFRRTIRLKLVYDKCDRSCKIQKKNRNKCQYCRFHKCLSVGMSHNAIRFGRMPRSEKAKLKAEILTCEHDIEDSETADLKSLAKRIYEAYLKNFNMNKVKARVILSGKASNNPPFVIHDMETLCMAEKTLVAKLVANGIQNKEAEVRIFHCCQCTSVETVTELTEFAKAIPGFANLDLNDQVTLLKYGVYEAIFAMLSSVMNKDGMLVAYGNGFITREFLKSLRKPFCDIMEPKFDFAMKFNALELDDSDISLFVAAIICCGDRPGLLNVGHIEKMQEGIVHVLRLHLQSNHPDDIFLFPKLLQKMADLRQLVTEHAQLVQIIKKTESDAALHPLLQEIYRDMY

[2] = target: T2, Peroxisome proliferator-activated receptor delta (Homo sapiens, UniProt Q03181); test: Agonist activity at GAL4-tagged PPARdelta (unknown origin)
T2 sequence (Q03181 whole entry): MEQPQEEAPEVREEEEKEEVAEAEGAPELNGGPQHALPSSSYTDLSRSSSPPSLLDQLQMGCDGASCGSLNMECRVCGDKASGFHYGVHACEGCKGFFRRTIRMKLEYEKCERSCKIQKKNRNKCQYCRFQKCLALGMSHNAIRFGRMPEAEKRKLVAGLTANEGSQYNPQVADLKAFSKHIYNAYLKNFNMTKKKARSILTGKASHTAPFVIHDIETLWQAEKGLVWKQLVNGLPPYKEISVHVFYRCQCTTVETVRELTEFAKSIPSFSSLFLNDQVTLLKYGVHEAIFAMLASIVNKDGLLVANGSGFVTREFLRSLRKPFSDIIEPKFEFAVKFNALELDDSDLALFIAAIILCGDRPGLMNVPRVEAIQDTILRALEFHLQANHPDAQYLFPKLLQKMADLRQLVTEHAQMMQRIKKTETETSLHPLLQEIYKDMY

[3] = target: T3, Peroxisome proliferator-activated receptor gamma (Homo sapiens, UniProt P37231); test: Agonist activity at GAL4-tagged PPARgamma (unknown origin)
T3 sequence (P37231 whole entry): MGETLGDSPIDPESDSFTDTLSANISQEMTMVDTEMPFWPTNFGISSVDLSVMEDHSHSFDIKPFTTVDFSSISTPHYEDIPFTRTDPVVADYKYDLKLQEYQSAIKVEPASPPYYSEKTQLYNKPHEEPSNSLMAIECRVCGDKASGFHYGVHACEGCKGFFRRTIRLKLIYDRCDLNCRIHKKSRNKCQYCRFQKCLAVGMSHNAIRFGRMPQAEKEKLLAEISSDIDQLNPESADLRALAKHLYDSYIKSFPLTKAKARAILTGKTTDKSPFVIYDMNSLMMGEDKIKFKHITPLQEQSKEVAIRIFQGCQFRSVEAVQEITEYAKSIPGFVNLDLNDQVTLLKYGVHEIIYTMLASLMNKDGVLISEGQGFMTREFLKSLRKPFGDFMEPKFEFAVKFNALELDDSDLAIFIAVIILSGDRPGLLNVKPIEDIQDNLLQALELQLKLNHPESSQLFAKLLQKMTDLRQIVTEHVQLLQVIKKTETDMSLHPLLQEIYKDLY

EC50 [1] [µM]	EC50 [2] [µM]	EC50 [3] [µM]	SMILES
0.00016			Cc1c(C(=O)O)cccc1-c1ccc(/C=C2/SC(=O)N(CC(=O)Nc3ccc(F)cc3)C2=O)o1
0.0121			CCOC(=O)C1=C(Nc2ccc(OCC)cc2)S/C(=C/c2ccc(OCC(=O)O)c(OC)c2)C1=O
	10	1.7	CC[C@@H](Oc1cccc(CN(CCCOc2ccc(OC)cc2)c2nc3ccccc3o2)c1)C(=O)O [PEMAFIBRATE]
0.0011			CCCCCOC(=O)c1ccc(NC(=O)c2cccc(NC(=O)c3ccccc3C(=O)O)c2)cc1
	13	6.6	Cc1nc(-c2ccc(Cl)cc2)sc1C(=O)N[C@H]1CCCN(c2cccc(C(=O)O)c2)C1
0.004	25	25	Cc1nc(-c2cccc(C(F)(F)F)c2)sc1CNCc1ccc(OC(C)(C)C(=O)O)cc1
	11	3.1	Cc1ccc(-c2nc(C)c(C(=O)N[C@H]3CCCN(c4cccc(C(=O)O)c4)C3)s2)cc1
